Measurements taken from US6214844A, “Substituted imidazole compounds” (SmithKline Beecham Corporation, priority 1999, dated 2001).

Experiments:
[1] = tested on: human PGHS-2; experiment: Prostoglandin endoperoxide synthase-2 (PGHS-2) assay: PGHS-2 protein expression in LPS stimulated human monocytes; assay type: cell-based
Procedure: Prostoglandin endoperoxide synthase-2 (PGHS-2) assay:
The following assay describes a method for determining the inhibitory effects of compounds of Formula (I) on human PGHS-2 protein expression in LPS stimulated human monocytes.
Method: Human peripheal blood monocytes were isolated from buffy coats by centrifugation through Ficoll and Percoll gradients. Cells were seeded at 2×10^6 /well in 24 well plates and allowed to adhere for 1 hour in RPMI supplemented with 1% human AB serum, 20 mM L-glutamine, Penicillin-Streptomycin and 10 mM HEPES. Compounds were added at various concentrations and incubated at 37° C. for 10 minutes. LPS was added at 50 ng/well (to induce enzyme expression) and incubated overnight at 37° C. The supernatant was removed and cells washed once in cold PBS. The cells were lysed in 100 μl of cold lysis buffer(50 mM Tris/HCl pH 7.5, 150 mM NaCl, 1% NP40, 0.5% sodium deoxycholate, 0.1% SDS, 300 ug/ml DNAse, 0.1% TRITON X-100, 1 mM PMSF, 1 mM leupeptin, 1 mM pepstatin). The lysate was centrifuged (10,000×g for 10 min. at 4° C.) to remove debris and the soluble fraction was subjected to SDS PAGE. analysis (12% gel). Protein separated on the gel were transferred onto nitrocellulose membrane by electrophoretic means for 2 hours at 60 volts. The membrane was pretreated for one hour in PBS/0.1% Tween 20 with 5% non-fat dry milk. After washing 3 times in PBS/Tween buffer, the membrane was incubated with a 1:2000 dilution of a monospecific antiserum to PGHS-2 or a 1:1000 dilution of an antiserum to PGHs-1 in PBS/Tween with 1% BSA for one hour with continuous shaking. The membrane was washed 3× in PBS/Tween and then incubated with a 1:3000 dilution of horseradish peroxidase conjugated donkey antiserum to rabbit Ig (Amershamn) in PBS/Tween with 1% BSA for one hour with continuous shaking. The membrane was then washed 3× in PBS/Tween and the ECL immunodetection system (Amersham) was used to detect the level of expression of prostaglandin endoperoxide synthases-2.

[2] = biological target: T1, CSBP2 (Homo sapiens, UniProt Q16539); experiment: CSBP kinase assay (32P transfer to EGFR-derived peptide T669); assay type: biochemical
T1 construct: made in house
T1 sequence (Q16539 whole entry): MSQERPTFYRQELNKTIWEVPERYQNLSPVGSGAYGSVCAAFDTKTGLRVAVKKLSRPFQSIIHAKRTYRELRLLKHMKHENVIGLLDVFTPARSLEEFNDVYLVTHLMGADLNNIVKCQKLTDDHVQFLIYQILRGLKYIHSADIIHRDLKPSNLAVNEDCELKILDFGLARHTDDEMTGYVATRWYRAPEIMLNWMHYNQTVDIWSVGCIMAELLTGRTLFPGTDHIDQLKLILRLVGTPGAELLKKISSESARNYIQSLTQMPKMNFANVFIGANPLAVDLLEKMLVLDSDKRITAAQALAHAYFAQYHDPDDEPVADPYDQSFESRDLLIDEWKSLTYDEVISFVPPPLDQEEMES
Procedure: Compounds (5 ul from [6X] stock^(2)) are pre-incubated with the enzyme and peptide for 20 min on ice prior to starting the reactions with 32P/MgATP. Reactions are incubated at 30° C. for 10 min and stopped by adding 10 ul of 0.3 M phosphoric acid. 32P-labeled peptide is separated on phosphocellulose (Wattman, p81) filters by spotting 30 ul reaction mixture. Filters are washed 3 times with […] phosphoric acid followed by 2 washes with H2 O, and counted for 32P.
^(2) Compounds are usually dissolved in DMSO and are diluted in 25 mM Hepes buffer to get final concentration of DMSO of 0.17%.

[3] = tested on: IL-1; experiment: Interleukin-1 (IL-1) production by LPS-stimulated human peripheral blood monocytes; assay type: cell-based; conditions: LPS 50 ng/ml
Procedure: Human peripheral blood monocytes are isolated and purified from either fresh blood preparations from volunteer donors, or from blood bank buffy coats, according to the procedure of Colotta et al, J Immunol, 132, 936 (1984). These monocytes (1×10^6) are plated in 24-well plates at a concentration of 1-2 million/ml per well. The cells are allowed to adhere for 2 hours, after which time non-adherent cells are removed by gentle washing. Test compounds are then added to the cells for 1 h before the addition of lipopolysaccharide (50 ng/ml), and the cultures are incubated at 37° C. for an additional 24 h. At the end of this period, culture supernatants are removed and clarified of cells and all debris. Culture supernatants are then immediately assayed for IL-1 biological activity, either by the method of Simon et al., J. Immunol. Methods, 84, 85, (1985) (based on ability of IL-1 to stimulate a Interleukin 2 producing cell line (EL-4) to secrete IL-2, in concert with A23187 ionophore) or the method of Lee et al., J. Immuno Therapy, 6 (1), 1-12 (1990) (ELISA assay).

[4] = biological target: T2, cytokine specific binding protein (CSBP) (Homo sapiens, UniProt Q16539); experiment: Cytokine Specific Binding Protein Assay (radiocompetitive binding, cytosolic fraction of THP.1 cells); conditions: THP.1 cytosolic fraction, radiolabeled compound
T2 construct: soluble cystosolic fraction from THP.1 cells; endogenous in cells; host or cells: THP.1 cells, soluble cytosolic fraction
T2 sequence (Q16539 whole entry): as above

[5] = active, rank order potency similar to that for inhibiting cytokine production

C[S+]([O-])c1ccc(-c2nc(-c3ccc(F)cc3)c(-c3ccncc3)[nH]2)cc1 (stereo not drawn) [4-(4-Fluorophenyl)-2-(4-methylsulfinylphenyl)-5-(4-pyridyl)imidazole]
inhibition of LPS induced PGHS-2 protein expression [1, 5]: active

Fc1ccc(-c2nc3n(c2-c2ccncc2)CCS3)cc1 [6-(4-Fluorophenyl)-2,3-dihydro-5-(4-pyridinyl)imidazo[2,1-b]thiazole]
inhibition of LPS induced PGHS-2 protein expression [1, 5]: active

O=C1CCN(c2ccccc2)N1 [phenidone]
inhibition of LPS induced PGHS-2 protein expression ([1]; inactive, up to 10 μM): inactive

COc1ccc(C2CNC(=O)C2)cc1OC1CCCC1 (stereo not drawn) [rolipramr]
inhibition of LPS induced PGHS-2 protein expression ([1]; inactive, up to 10 μM): inactive

CCOC(=O)N1CCC(n2cnc(-c3ccc([S+](C)[O-])cc3)c2-c2ccnc([S+](C)[O-])n2)CC1 (stereo not drawn) [Example 10]
IC50 [2]: > 50 µM

CC(Cc1ccc(O)c(O)c1)C(C)Cc1ccc(O)c(O)c1 (stereo not drawn) [NDGA]
inhibition of LPS induced PGHS-2 protein expression ([1]; inactive, up to 10 μM): inactive

C[S+]([O-])c1ccc(-c2nc3n(c2-c2ccncc2)CCC3)cc1 (stereo not drawn) [2-(4-Methylsulfinylphenyl)-3-(4-pyridyl)-6,7-dihydro-(5H)-pyrrolo[1,2-a]imidazole]
inhibition of LPS induced PGHS-2 protein expression ([1]; inactive, up to 10 μM): inactive

COc1nccc(-c2c(-c3ccc(F)cc3)ncn2C2CCNCC2)n1 [Example 1, 5-(2-Methoxy-4-pyrimidinyl)-4-(4-fluorophenyl)-1-(4-piperidinyl)imidazole]
inhibition of IL-1 production [3]: positive inhibition

CC(C)Oc1cc(-c2c(-c3ccc(F)cc3)ncn2C2CCNCC2)ccn1 [Example 5, 5-(2-iso-Propoxy4-pyridinyl)-4-(4-fluorophenyl)-1-(4-piperidinyl)imidazole]
IC50 [2]: > 50 µM

CSc1nccc(-c2c(-c3ccc(F)cc3)ncn2C2CCNCC2)n1 [Example 6, 5-(2-Methylthio-4-pyrimidinyl)4-(4-fluorophenyl)-1-(4-piperidinyl)imidazole]
IC50 [4]: < 50 µM

C[C@@H]1C[C@H]2[C@@H]3CCC4=CC(=O)C=C[C@]4(C)[C@@]3(F)[C@@H](O)C[C@]2(C)[C@@]1(O)C(=O)CO [Dexamethasone]
inhibition of LPS induced PGHS-2 protein expression [1, 5]: active

CCOC(=O)N1CCC(n2cnc(-c3ccc(SC)cc3)c2-c2ccnc(SC)n2)CC1 [Example 9, 1-(1-Ethylcarboxylpiperidin-4-yl)-3-(4-thiomethylphenyl)-5-[2-(thiomethyl)pyrimidin-4-yl]-imidazole]
IC50 [2]: > 50 µM
